Measured values as given in the supplement of paper PMC11451515.

Experiments:
Test in all cases: AUC of viability dose-response curve (% viability x log10 dose units); higher = less sensitive
Conditions in all cases: 48 h
NOMO1 = system: NOMO1
How it was run: (§1)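 Area under the curve was integrated by trapezoidal rule from a log-logistic fit of normalised viability, with curves exceeding full viability scaled and quality-control failures removed. The fit had four parameters over log10 doses. Viability came from CellTiter-Glo One luminescence, normalised per plate to DMSO and cell-free wells, after leukemia cells adapted to each medium (500 or 1000 cells/well, 1536-well plates) were exposed to library compounds in DMSO for 48 h at 37°C. The 11 threefold doses ran from 47 μM to 0.79 nM.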

P12-Ichikawa = system: P12-Ichikawa
How it was run: as §1

SEM cells = system: SEM cells
How it was run: as §1

[1] = RPMI 5 mM glucose + 10% dialyzed FBS

Row | SMILES | AUC of viability dose-response curve (NOMO1; HPLM + 10% dialyzed FBS) | AUC of viability dose-response curve (NOMO1; RPMI 5 mM glucose + 10% FBS) | AUC of viability dose-response curve (NOMO1; [1]) | AUC of viability dose-response curve (P12-Ichikawa; HPLM + 10% dialyzed FBS) | AUC of viability dose-response curve (P12-Ichikawa; RPMI 5 mM glucose + 10% FBS) | AUC of viability dose-response curve (P12-Ichikawa; [1]) | AUC of viability dose-response curve (SEM cells; HPLM + 10% dialyzed FBS) | AUC of viability dose-response curve (SEM cells; RPMI 5 mM glucose + 10% FBS) | AUC of viability dose-response curve (SEM cells; [1])
1 | N[S+](=O)([O-])OC[C@@H]1C[C@@H](n2ccc3c(N[C@H]4CCc5ccccc54)ncnc32)C[C@@H]1O | 319 | 300 | 313 | 373 | 352 | 352 | 352 | 346 | 339
2 | CC1(C)C(N(O)C(=O)Nc2ccc(Cl)cc2)N(c2ccc(Cl)cc2)C(=O)N1CC(=O)N/N=C/C=C/c1ccc([N+](=O)[O-])o1 (stereo not given) | 447 | 447 | 468 | 465 | 461 | 453 | 453 | 386 | 382
3 | Cn1cc(C[C@@H](N)C(=O)O)c2ccccc21 | 449 | 448 | 440 | 467 | 472 | 469 | 461 | 406 | 467
4 | CN1CCN(CCOc2cc(OC3CCOCC3)c3c(Nc4c(Cl)ccc5c4OCO5)ncnc3c2)CC1 | 428 | 463 | 459 | 410 | 446 | 429 | 416 | 378 | 391
5 | CCOC1=CC=CC=C1N\2C(=O)C3=C(C=CC=C3)\N=C2C(C)N4CCN(CC4)C(=O)COC5=CC=C(Cl)C=C5 (stereo not given) | 304 | 330 | 357 | 303 | 327 | 320 | 323 | 280 | 297
6 | OCc1ccc(-c2ccc(-c3ccc(CO)s3)o2)s1 | 437 | 432 | 428 | 429 | 429 | 415 | 450 | 386 | 453
7 | O=C1NC(=O)/C(=C/c2ccc(-c3ccc(F)cc3O)o2)S1 | 430 | 443 | 422 | 447 | 420 | 427 | 445 | 419 | 427
8 | CON(C)C(=O)N1/N=C(S[C@@]1(CCCN)C2=CC=CC=C2)/C3=CC(=CC=C3F)F | 242 | 211 | 226 | 183 | 177 | 206 | 162 | 171 | 193
9 | Cc1c(C)c2c(c(C)c1O)CCC(C)(COc1ccc(CC3SC(=O)NC3=O)cc1)O2 (stereo not given) | 466 | 466 | 454 | 477 | 477 | 462 | 467 | 462 | 471
10 | COC1=CC=C2/C3=N/CCN3\C(=N/C2=C1OC)NC(=O)C4=CC=CN=C4 | 427 | 462 | 402 | 457 | 427 | 439 | 452 | 419 | 422
11 | CO/N=C(\C(=O)N[C@@H]1C(=O)N2C(C(=O)OCOC(=O)C(C)(C)C)=C(/C=C\c3scnc3C)CS[C@H]12)c1csc(N)n1 | 453 | 448 | 398 | 463 | 449 | 451 | 419 | 412 | 453
12 | CC(C)(C)[C@H](NC(=O)c1ccc(N)c(Cl)c1)C(=O)N1CCC[C@H]1C(=O)N[C@H](C#N)CC(=O)O | 359 | 343 | 354 | 377 | 387 | 419 | 429 | 470 | 451
13 | CCOC(=O)\C1=C\[C@@H](OC(CC)CC)[C@H](NC(C)=O)[C@@H](N)C1 | 440 | 450 | 454 | 463 | 460 | 419 | 416 | 432 | 414
14 | OC1=CC2=C(C(=C1)O)C(=O)\C(=C(/O2)C3=CC(=C(O)C=C3)O)O | 459 | 465 | 469 | 469 | 471 | 469 | 454 | 470 | 454
15 | CN1CCN(CCCN2c3ccccc3Sc3ccc(C(F)(F)F)cc32)CC1 | 379 | 357 | 384 | 426 | 423 | 456 | 447 | 451 | 463
